In patent US9260461B2, “Water-soluble derivatives and prodrugs of acacetin and methods of making and using thereof” (Versitech Limited, priority 2014, dated 2016):

Tests used:
[1] = tested on: myocardial infarction induced by ischemia-reperfusion; experiment: Ventricular infarct area (TTC staining) in anesthetized rats with ischemia-reperfusion; type: in vivo; settings: 10 mg/kg i.v.; n=4, P<0.01 vs vehicle
[2] = molecular target: T1, Kv4.3 current (hKv4.3 gene expressed in HEK 293 cells) (Homo sapiens, UniProt Q9UK17); experiment: Whole-cell patch-clamp, Kv4.3 current in HEK 293 cells; type: cell-based; settings: 30 μM, representative cells
T1 construct: expressed in transfected cells
T1 sequence (Q9UK17 1-655): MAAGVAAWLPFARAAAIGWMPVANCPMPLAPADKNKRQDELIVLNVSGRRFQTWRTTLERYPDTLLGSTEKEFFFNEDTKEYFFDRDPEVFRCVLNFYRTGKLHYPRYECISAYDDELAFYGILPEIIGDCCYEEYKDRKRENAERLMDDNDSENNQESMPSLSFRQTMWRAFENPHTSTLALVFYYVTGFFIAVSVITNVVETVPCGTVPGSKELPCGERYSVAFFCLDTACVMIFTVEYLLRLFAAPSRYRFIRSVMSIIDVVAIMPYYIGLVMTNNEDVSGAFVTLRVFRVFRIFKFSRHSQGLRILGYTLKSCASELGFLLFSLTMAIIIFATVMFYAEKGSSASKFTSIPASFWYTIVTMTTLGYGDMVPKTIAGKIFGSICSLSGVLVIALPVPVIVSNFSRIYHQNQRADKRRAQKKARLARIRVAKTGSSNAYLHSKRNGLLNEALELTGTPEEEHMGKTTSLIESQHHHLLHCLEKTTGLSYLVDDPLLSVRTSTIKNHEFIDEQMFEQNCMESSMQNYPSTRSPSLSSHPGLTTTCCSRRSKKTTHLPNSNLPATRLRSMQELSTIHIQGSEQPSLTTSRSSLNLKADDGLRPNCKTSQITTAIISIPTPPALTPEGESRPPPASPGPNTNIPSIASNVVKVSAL
Method: HEK 293 cell line stably expressing the hKV1.5 gene (Wu et al., 2011) or hKv4.3 gene (Wu et al., 2013) was maintained in Dulbecco's modified eagle's medium (DMEM, Invitrogen, Hong Kong) supplemented with 10% fetal bovine serum and 400 μg/mL G418 in a 5% CO2 incubator. Cells were seeded on a glass cover slip for electrophysiology recording.
Ionic currents in HEK 293 cell lines and rat atrial myocytes were measured by the standard whole-cell patch-clamp technique using a standard pipette and bath solution with an EPC-10 amplifier and Pulse software (HEKA, Lambrecht, Germany). A 3M KCl-agar salt bridge was used as the reference electrode. The current signal was sampled at 5 kHz, recorded and stored in the hard disk of an IBM compatible computer. All experiments were conducted at room temperature (22-23° C.).
However, Kv1.5 current (FIG. 3D), Kv4.3 current (FIG. 3E) or IKACh (FIG. 3F) was inhibited by 10 μM acacetin in representative cells consistent with experimental reports.

[3] = In vivo conversion of prodrugs to acacetin, HPLC of blood samples from anesthetized rats; parameters: species or system SD rats
Method: Male SD rats (250-300 g) was anesthetized with phenobarbital (30 mg/kg, i.p.), and the jugular vein and femoral vein were cannulated for drug administration and blood sample collection. Tracheal cannulation was also performed for ventilation. Drug (20 mg/kg) was administrated for 30-60 min, and blood samples (˜0.2 mL) were collected before and at 5, 15, 30, 60, 90, and 120 min after drug administration using ascorbic acid and EDTA-preserved microcentrifuge tubes (1.5 mL) for HPLC (high-performance liquid chromatography) analysis of acacetin conversion.
The samples were stored in a −80° C. freezer until HPLC analysis for acacetin content. Except for the double blanks, pentamethylquercetin (500 ng/mL) was used for concentration calibration. The analysis was carried out on a Waters HPLC system (Milford, Mass.) equipped with an Alltech column (C18, 250 mm×4.6 mm i.d., 5 μm, Grace, Deerfield, Ill.). The mobile phase consisted of 45% acetonitrile in 1% of acetic acid. The UV detector was set at a single wavelength of 260 nm. The lower limit of quantification was 50 ng/mL.
The in vivo conversion of water-soluble prodrug A was determined in anesthetized SD rats. Prodrug A (20 mg/kg i.v.) was infused for 30-60 min, and levels of the parent compound acacetin in blood plasma were determined by HPLC analysis.

[4] = tested on: ventricular arrhythmias induced by ischemia-reperfusion injury; experiment: Ischemia-reperfusion model in anesthetized rats (ventricular arrhythmias, heart rate, left ventricular contractile function); type: in vivo, Sprague-Dawley (SD) rats; settings: for incidence of severe ventricular fibrillation: 90% in vehicle, P<0.05
Method: Adult male Sprague-Dawley (SD) rats (250-300 g) were anesthetized with pentobarbital (30 mg/kg i.p.), supplemented during the experiment when needed. The animal was intubated and ventilated. Body temperature was maintained at 37° C. with a temperature control system. The jugular vein was cannulated for drug administration and a plastic tubing (0.8 mm OD) was introduced into the left ventricle through the […] to measure the contractile function (e.g. left ventricular pressure). The left chest was opened under ventilation to expose the coronary artery. A fine silk was introduced at the upper ⅓ left anterior coronary descending artery (LA). After a 10-min stabilization period, the drug at 5, 10, or 20 mg/kg was intravenously administrated respectively in 5 min, and an equal volume (1 mL/kg) of vehicle was administrated for the control. LAD was then ligated for 10 min followed a 30-min reperfusion. ECG and blood pressure signals were continuously monitored and stored on an IBM compatible PC computer using a multiple channels data acquisition system (RM-6280C, Chengdu Instrument Ltd, Chendu, China) to record the incidence of ventricular arrhythmia (i.e. fibrillation, tachycardia, and premature beats) and […].
To investigate the effects of water-soluble Prodrug A on ventricular arrhythmias induced by ischemia-reperfusion injury, the in vivo ischemia-reperfusion model was established in SD rats. In this model, the animal, ventricular arrhythmias, including premature ventricular beats (PVBs), and ventricular tachycardia (VT), were developed with 10 min ischemia (ligation of coronary anterior descending artery) followed by […]. Ventricular fibrillation was frequently observed during the early reperfusion in the control animal with intravenous vehicle (FIG. 1A), but not in the animal treated with intravenous Prodrug A (10 mg/kg for 5 min, FIG. 1B). Prodrug A at 5 mg, 10, and 20 mg/kg decreased arrhythmia score (FIG. 1C) and arrhythmia duration in a dose-dependent manner (P<0.05 or P<0.01 vs. vehicle).
In addition to the anti-ventricular fibrillation, Prodrug A prevented heart rate reduction (FIG. 2A), and improved the decreased function contractile function including left ventricular systolic pressure (FIG. 2B), development pressure (FIG. 2C), and +dP/dT (FIG. 2D) induced by ischemia and/or reperfusion injury in a dose-dependent manner (P<0.05 or P<0.01 vs. vehicle).

[5] = 10 mg and 20 mg/kg, before ligation
[6] = 5, 10 and 20 mg/kg i.v., dose-dependent, P<0.05 or P<0.01 vs. vehicle
[7] = i.v., dose-dependent, P<0.05 or P<0.01 vs. vehicle

COc1ccc(-c2cc(=O)c3c(O)cc(OP(=O)(O)O)cc3o2)cc1 [Prodrug A]
ventricular infarct area [1]: reduced | effect on Kv4.3 current [2]: no inhibitory effect | concentrations of acacetin at different time-points after prodrug administration [3]: can reach therapeutic concentrations | heart rate before coronary artery ligation [4, 5]: without affecting | left ventricular development pressure before coronary artery ligation [4, 5]: slightly but significantly increased | left ventricular systolic pressure before coronary artery ligation [4, 5]: slightly but significantly increased | incidence of severe ventricular fibrillation ([4]; 10 mg/kg i.v.): 30% | incidence of severe ventricular fibrillation ([4]; 20 mg/kg i.v.): 20% | arrhythmia duration [4, 6]: decreased | arrhythmia score [4, 6]: decreased | decreased +dP/dT induced by ischemia and/or reperfusion injury [4, 7]: improved | decreased left ventricular development pressure induced by ischemia and/or reperfusion injury [4, 7]: improved | decreased left ventricular systolic pressure induced by ischemia and/or reperfusion injury [4, 7]: improved | heart rate reduction induced by ischemia and/or reperfusion injury [4, 7]: prevented
